#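 These data come from cells grown in 96-well plates and exposed to compound for 48 hours at five concentrations. Here, GI50 denotes the concentration required for 50% inhibition of growth.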 The source made the active and inactive calls. Cut-off read from the data, not from the text of the source: active = GI50 up to about 1.1 µM and inactive = higher.
# Tests used:
# Experiment in all cases: NCI tumour cell line growth inhibition, 48 h
# 786-0 = tested on: 786-0
# A498 = tested on: A498
# A549 = tested on: A549
# ACHN = tested on: ACHN
# CAKI-1 = tested on: CAKI-1
# CCRF-CEM = tested on: CCRF-CEM
# COLO 205 = tested on: COLO 205
# DLD-1 = tested on: DLD-1
# DMS-114 = tested on: DMS-114
# DMS-273 = tested on: DMS-273
# EKVX = tested on: EKVX
# HCC 2998 = tested on: HCC 2998
# HCT-116 = tested on: HCT-116
# HCT-15 = tested on: HCT-15
# HL-60 = tested on: HL-60
# HOP-18 = tested on: HOP-18
# HOP-92 = tested on: HOP-92
# HT-29 = tested on: HT-29
# IGROV-1 = tested on: IGROV-1
# KM-20L2 = tested on: KM-20L2
# KM12 = tested on: KM12
# LOX IMVI = tested on: LOX IMVI
# LXFL 529 = tested on: LXFL 529
# M14 = tested on: M14
# M19-MEL = tested on: M19-MEL
# MOLT-4 = tested on: MOLT-4
# Malme-3M = tested on: Malme-3M
# NCI-H226 = tested on: NCI-H226
# NCI-H23 = tested on: NCI-H23
# NCI-H460 = tested on: NCI-H460
# NCI-H522 = tested on: NCI-H522
# OVCAR-3 = tested on: OVCAR-3
# OVCAR-4 = tested on: OVCAR-4
# OVCAR-5 = tested on: OVCAR-5
# OVCAR-8 = tested on: OVCAR-8
# RPMI-8226 = tested on: RPMI-8226
# RXF 393 = tested on: RXF 393
# SF-268 = tested on: SF-268
# SF-295 = tested on: SF-295
# SF-539 = tested on: SF-539
# SK-MEL-28 = tested on: SK-MEL-28
# SK-MEL-2 = tested on: SK-MEL-2
# SK-MEL-5 = tested on: SK-MEL-5
# SK-OV-3 = tested on: SK-OV-3
# SN12C = tested on: SN12C
# SNB-19 = tested on: SNB-19
# SNB-75 = tested on: SNB-75
# SNB-78 = tested on: SNB-78
# SW-620 = tested on: SW-620
# TK-10 = tested on: TK-10
# U-251 = tested on: U-251
# UACC-257 = tested on: UACC-257
# UACC-62 = tested on: UACC-62
# UO-31 = tested on: UO-31
# XF498 = tested on: XF498
# HOP-62 = tested on: HOP-62
# K562 = tested on: K562
# BT-549 = tested on: BT-549
# DU-145 = tested on: DU-145
# Hs-578T = tested on: Hs-578T
# MCF7 = tested on: MCF7
# MDA-MB-231 = tested on: MDA-MB-231
# MDA-MB-435 = tested on: MDA-MB-435
# MDA-N = tested on: MDA-N
# NCI/ADR-RES = tested on: NCI/ADR-RES
# PC-3 = tested on: PC-3
# SR = tested on: SR
# T47D = tested on: T47D
smiles,measurement,setting,value
COc1cc(/C=C\c2ccc(O)cc2)cc(OC)c1OC,GI50,786-0,8.59 µM (inactive)
same,GI50,A498,29.4 µM (inactive)
same,GI50,A549,6.1 µM (inactive)
same,GI50,ACHN,8.17 µM (inactive)
same,GI50,CAKI-1,4.71 µM (inactive)
same,GI50,CCRF-CEM,3.72 µM (inactive)
same,GI50,COLO 205,5.57 µM (inactive)
same,GI50,DLD-1,> 100 µM (inactive)
same,GI50,DMS-114,2.48 µM (inactive)
same,GI50,DMS-273,0.35 µM (active)
same,GI50,EKVX,9.93 µM (inactive)
same,GI50,HCC 2998,> 23.3 µM (inactive)
same,GI50,HCT-116,3.96 µM (inactive)
same,GI50,HCT-15,0.518 µM
same,GI50,HL-60,10.3 µM (inactive)
same,GI50,HOP-18,22.3 µM (inactive)
same,GI50,HOP-92,0.293 µM (active)
same,GI50,HT-29,15.3 µM (inactive)
same,GI50,IGROV-1,5.24 µM (inactive)
same,GI50,KM-20L2,33.3 µM (inactive)
same,GI50,KM12,0.883 µM (active)
same,GI50,LOX IMVI,5.19 µM (inactive)
same,GI50,LXFL 529,4.18 µM (inactive)
same,GI50,M14,22.2 µM (inactive)
same,GI50,M19-MEL,3.66 µM (inactive)
same,GI50,MOLT-4,4.24 µM (inactive)
same,GI50,Malme-3M,4.25 µM (inactive)
same,GI50,NCI-H226,22.3 µM (inactive)
same,GI50,NCI-H23,0.505 µM (active)
same,GI50,NCI-H460,3.33 µM (inactive)
same,GI50,NCI-H522,2.88 µM (inactive)
same,GI50,OVCAR-3,2.32 µM (inactive)
same,GI50,OVCAR-4,8.97 µM (inactive)
same,GI50,OVCAR-5,98.9 µM (inactive)
same,GI50,OVCAR-8,6.95 µM (inactive)
same,GI50,RPMI-8226,0.402 µM (active)
same,GI50,RXF 393,3.78 µM (inactive)
same,GI50,SF-268,0.555 µM (active)
same,GI50,SF-295,2.47 µM (inactive)
same,GI50,SF-539,2.82 µM (inactive)
same,GI50,SK-MEL-28,1.91 µM (inactive)
same,GI50,SK-MEL-2,2.64 µM (inactive)
same,GI50,SK-MEL-5,1.18 µM (inactive)
same,GI50,SK-OV-3,3.88 µM (inactive)
same,GI50,SN12C,4.9 µM (inactive)
same,GI50,SNB-19,2.56 µM (inactive)
same,GI50,SNB-75,3.94 µM (inactive)
same,GI50,SNB-78,3.96 µM (inactive)
same,GI50,SW-620,2.65 µM (inactive)
same,GI50,TK-10,18.2 µM (inactive)
same,GI50,U-251,3.01 µM (inactive)
same,GI50,UACC-257,17.3 µM (inactive)
same,GI50,UACC-62,3.37 µM (inactive)
same,GI50,UO-31,10.4 µM (inactive)
same,GI50,XF498,9.98 µM (inactive)
CN(C)CCOc1cccc2c1C(=O)c1ccccc1C2=O,GI50,786-0,17.6 µM (inactive)
same,GI50,A498,18.1 µM (inactive)
same,GI50,A549,13.7 µM (inactive)
same,GI50,ACHN,12 µM (inactive)
same,GI50,CAKI-1,14.7 µM (inactive)
same,GI50,CCRF-CEM,11.4 µM (inactive)
same,GI50,COLO 205,4.38 µM (inactive)
same,GI50,DLD-1,8.34 µM (inactive)
same,GI50,DMS-114,10.4 µM (inactive)
same,GI50,DMS-273,10.1 µM (inactive)
same,GI50,EKVX,18.4 µM (inactive)
same,GI50,HCC 2998,13.9 µM (inactive)
same,GI50,HCT-116,4.58 µM (inactive)
same,GI50,HCT-15,12.2 µM
same,GI50,HL-60,12.1 µM (inactive)
same,GI50,HOP-18,16 µM (inactive)
same,GI50,HOP-62,13.6 µM (inactive)
same,GI50,HOP-92,11.8 µM (inactive)
same,GI50,HT-29,6.37 µM (inactive)
same,GI50,IGROV-1,16.5 µM (inactive)
same,GI50,K562,11.1 µM (inactive)
same,GI50,KM-20L2,13.9 µM (inactive)
same,GI50,KM12,10.8 µM (inactive)
same,GI50,LOX IMVI,5.75 µM (inactive)
same,GI50,LXFL 529,12.1 µM (inactive)
same,GI50,M14,13.5 µM (inactive)
same,GI50,M19-MEL,5.65 µM (inactive)
same,GI50,MOLT-4,3.45 µM (inactive)
same,GI50,Malme-3M,13.6 µM (inactive)
same,GI50,NCI-H226,9.95 µM (inactive)
same,GI50,NCI-H23,11.8 µM (inactive)
same,GI50,NCI-H460,5.36 µM (inactive)
same,GI50,NCI-H522,6.52 µM (inactive)
same,GI50,OVCAR-3,17.9 µM (inactive)
same,GI50,OVCAR-4,6.14 µM (inactive)
same,GI50,OVCAR-5,16.5 µM (inactive)
same,GI50,OVCAR-8,9.48 µM (inactive)
same,GI50,RXF 393,13.8 µM (inactive)
same,GI50,SF-268,9.79 µM (inactive)
same,GI50,SF-295,15.1 µM (inactive)
same,GI50,SF-539,10.4 µM (inactive)
same,GI50,SK-MEL-28,15.3 µM (inactive)
same,GI50,SK-MEL-2,14.2 µM (inactive)
same,GI50,SK-MEL-5,12.8 µM (inactive)
same,GI50,SK-OV-3,20.4 µM (inactive)
same,GI50,SN12C,9.06 µM (inactive)
same,GI50,SNB-19,18.2 µM (inactive)
same,GI50,SNB-75,14.9 µM (inactive)
same,GI50,SNB-78,13.6 µM (inactive)
same,GI50,SW-620,8.32 µM (inactive)
same,GI50,TK-10,17.3 µM (inactive)
same,GI50,U-251,17.4 µM (inactive)
same,GI50,UACC-257,13.1 µM (inactive)
same,GI50,UACC-62,16.3 µM (inactive)
same,GI50,UO-31,4.52 µM (inactive)
same,GI50,XF498,18.7 µM (inactive)
CCCCCCCCCCCCCC(=O)O[C@H]1CC[C@H](NC(=O)[C@H](OC)[C@H](O)[C@@H](O)[C@H](O)/C=C/C(C)C)C(=O)NC1 [BENGAMIDE A],GI50,786-0,0.00512 µM (active)
same,GI50,A498,0.0389 µM (active)
same,GI50,A549,0.00512 µM (active)
same,GI50,ACHN,0.0592 µM (active)
same,GI50,BT-549,0.953 µM (active)
same,GI50,CAKI-1,0.292 µM (active)
same,GI50,CCRF-CEM,0.00512 µM (active)
same,GI50,COLO 205,0.00512 µM (active)
same,GI50,DMS-114,0.00512 µM (active)
same,GI50,DMS-273,0.00512 µM (active)
same,GI50,DU-145,0.731 µM (active)
same,GI50,EKVX,0.234 µM (active)
same,GI50,HCC 2998,0.117 µM (active)
same,GI50,HCT-116,0.00512 µM (active)
same,GI50,HCT-15,0.299 µM
same,GI50,HL-60,0.00512 µM (active)
same,GI50,HOP-18,> 10 µM (inactive)
same,GI50,HOP-62,0.235 µM (active)
same,GI50,HOP-92,0.0204 µM (active)
same,GI50,HT-29,0.00619 µM (active)
same,GI50,Hs-578T,0.237 µM (active)
same,GI50,IGROV-1,0.00708 µM (active)
same,GI50,K562,0.00512 µM (active)
same,GI50,KM-20L2,0.0045 µM (active)
same,GI50,KM12,0.00512 µM (active)
same,GI50,LOX IMVI,0.00512 µM (active)
same,GI50,LXFL 529,0.00386 µM (active)
same,GI50,M14,0.00601 µM (active)
same,GI50,M19-MEL,0.0033 µM (active)
same,GI50,MCF7,0.0392 µM (active)
same,GI50,MDA-MB-231,0.137 µM (active)
same,GI50,MDA-MB-435,0.204 µM (active)
same,GI50,MDA-N,0.0598 µM (active)
same,GI50,MOLT-4,0.00512 µM (active)
same,GI50,Malme-3M,0.0148 µM (active)
same,GI50,NCI-H226,0.145 µM (active)
same,GI50,NCI-H23,0.0113 µM (active)
same,GI50,NCI-H460,0.00512 µM (active)
same,GI50,NCI-H522,0.011 µM (active)
same,GI50,NCI/ADR-RES,5.18 µM (inactive)
same,GI50,OVCAR-3,0.0147 µM (active)
same,GI50,OVCAR-4,0.0255 µM (active)
same,GI50,OVCAR-5,38.1 µM (inactive)
same,GI50,OVCAR-8,0.00828 µM (active)
same,GI50,PC-3,0.147 µM (active)
same,GI50,RPMI-8226,0.00634 µM (active)
same,GI50,RXF 393,0.175 µM (active)
same,GI50,SF-268,0.00893 µM (active)
same,GI50,SF-295,0.0927 µM (active)
same,GI50,SF-539,0.0197 µM (active)
same,GI50,SK-MEL-28,< 0.0103 µM (active)
same,GI50,SK-MEL-2,0.251 µM (active)
same,GI50,SK-MEL-5,0.0105 µM (active)
same,GI50,SK-OV-3,0.149 µM (active)
same,GI50,SN12C,0.00542 µM (active)
same,GI50,SNB-19,0.0115 µM (active)
same,GI50,SNB-75,0.0353 µM (active)
same,GI50,SNB-78,> 10 µM (inactive)
same,GI50,SR,0.0316 µM (active)
same,GI50,SW-620,0.00512 µM (active)
same,GI50,T47D,0.01 µM (active)
same,GI50,TK-10,0.0726 µM (active)
same,GI50,U-251,0.00705 µM (active)
same,GI50,UACC-257,0.0205 µM (active)
same,GI50,UACC-62,0.00512 µM (active)
same,GI50,UO-31,0.106 µM (active)
same,GI50,XF498,0.0147 µM (active)

# Reference: ChEMBL document CHEMBL1201862, “PubChem BioAssay data set” (2004)
